How the values were obtained:
[1] = biological target: T1, wild type AXL (wtAXL) receptor tyrosine kinase (Homo sapiens, UniProt P30530); test: NIH-3T3-AXL cellular tyrosine kinase assay (inhibition of AXL phosphorylation); format: cell-based; conditions: AXL phosphorylation in NIH-3T3-AXL (clone 22) cells, serum-depleted, 2 h with compound, immunoprecipitation / anti-phosphotyrosine blot
T1 construct: WtAXL cDNA was cloned into vector pLXSN(ESK) and transfected into Phoenix E packaging cells; expressed in transfected cells; host or cells: NIH3T3 N7 mouse fibroblasts, retrovirally infected (clone 22)
T1 sequence (P30530 26-894): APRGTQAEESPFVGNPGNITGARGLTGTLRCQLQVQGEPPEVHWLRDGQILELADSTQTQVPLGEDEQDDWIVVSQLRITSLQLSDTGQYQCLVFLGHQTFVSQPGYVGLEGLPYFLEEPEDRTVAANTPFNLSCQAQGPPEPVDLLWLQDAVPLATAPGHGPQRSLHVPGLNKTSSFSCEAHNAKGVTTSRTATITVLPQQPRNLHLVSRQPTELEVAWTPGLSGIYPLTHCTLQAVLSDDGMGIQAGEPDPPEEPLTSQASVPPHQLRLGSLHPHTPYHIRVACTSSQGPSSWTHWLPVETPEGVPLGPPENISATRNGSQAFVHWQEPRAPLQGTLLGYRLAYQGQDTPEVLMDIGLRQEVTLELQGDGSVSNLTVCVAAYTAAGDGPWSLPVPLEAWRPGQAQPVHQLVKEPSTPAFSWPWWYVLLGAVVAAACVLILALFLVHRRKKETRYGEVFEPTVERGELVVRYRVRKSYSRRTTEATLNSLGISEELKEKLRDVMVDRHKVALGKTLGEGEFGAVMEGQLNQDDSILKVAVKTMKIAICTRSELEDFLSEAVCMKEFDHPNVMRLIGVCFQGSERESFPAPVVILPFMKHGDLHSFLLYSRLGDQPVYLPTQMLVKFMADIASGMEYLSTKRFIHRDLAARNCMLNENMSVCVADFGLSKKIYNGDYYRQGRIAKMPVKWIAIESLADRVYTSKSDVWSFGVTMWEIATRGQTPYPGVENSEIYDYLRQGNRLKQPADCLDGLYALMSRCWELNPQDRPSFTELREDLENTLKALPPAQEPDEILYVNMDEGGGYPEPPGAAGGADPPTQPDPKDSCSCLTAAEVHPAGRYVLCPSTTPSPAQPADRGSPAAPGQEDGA
Outline: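 NIH3T3 clones stably expressing human wtAXL (puromycin-selected) were exposed to serially diluted compounds for 2 h. AXL was immunoprecipitated from lysates with anti-AXL antibody, and phosphorylation detected by anti-phosphotyrosine (4G10) western blot with ECL.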

IC50 [1] [µM] | melting point [°C] | Structure (SMILES)
> 1 | 191 to 193 | COc1cc2nccc(Oc3ccc(NS(=O)(=O)c4csc5ccccc45)cc3F)c2cc1OC [Example A108, Benzo[b]thiophene-3-sulfonic acid [4-(6,7-dimethoxy-quinolin-4-yloxy)-3-fluoro-phenyl]-amide]
> 1 | 202 to 204 | COc1cc(S(=O)(=O)Nc2ccc(Oc3ccnc4cc(OC)c(OC)cc34)c(F)c2)ccc1F [Example A109, N-[4-(6,7-Dimethoxy-quinolin-4-yloxy)-3-fluoro-phenyl]-4-fluoro-3-methoxy-benzenesulfonamide]
1.18 | 99 to 101 | COc1cc2nccc(Oc3ccc(NS(=O)(=O)c4ccc(Cl)cc4F)cc3F)c2cc1OC [Example A110, 4-Chloro-N-[4-(6,7-dimethoxy-quinolin-4-yloxy)-3-fluoro-phenyl]-2-fluoro-benzenesulfonamide]
> 3 | 159 to 162 | COc1cc2nccc(Oc3ccc(NS(=O)(=O)c4cc(Cl)cc(Cl)c4OC)c(C)c3)c2cc1OC [Example A111, 3,5-Dichloro-N-[4-(6,7-dimethoxy-quinolin-4-yloxy)-2-methyl-phenyl]-2-methoxy-benzenesulfonamide]
> 3 | 230 to 232 | COc1cc2nccc(Oc3ccc(NS(=O)(=O)c4ccccc4OC(F)(F)F)c(C)c3)c2cc1OC [Example A112, N-[4-(6,7-Dimethoxy-quinolin-4-yloxy)-2-methyl-phenyl]-2-trifluoromethoxy-benzenesulfonamide]
> 3 | 254 to 257 | COc1cc2nccc(Oc3ccc(NS(=O)(=O)c4ccccc4C(F)(F)F)c(C)c3)c2cc1OC [Example A113, N-[4-(6,7-Dimethoxy-quinolin-4-yloxy)-2-methyl-phenyl]-2-trifluoromethyl-benzenesulfonamide]
0.47 | 222 to 223 | COc1cc2nccc(Oc3ccc(NS(=O)(=O)c4ccccc4OC(F)(F)F)cc3)c2cc1OC [Example A114, N-[4-(6,7-Dimethoxy-quinolin-4-yloxy)-phenyl]-2-trifluoromethoxy-benzenesulfonamide]
1.26 | 172 to 174 | COc1cc2nccc(Oc3ccc(NS(=O)(=O)c4cccc(Oc5ccccc5)c4)cc3)c2cc1OC [Example A115, N-[4-(6,7-Dimethoxy-quinolin-4-yloxy)-phenyl]-3-phenoxy-benzenesulfonamide]
> 3 | 222 to 224 | COc1cc(S(=O)(=O)Nc2ccc(Oc3ccnc4cc(OC)c(OC)cc34)cc2)ccc1F [Example A116, N-[4-(6,7-Dimethoxy-quinolin-4-yloxy)-phenyl]-4-fluoro-3-methoxy-benzenesulfonamide]
> 10 | 232 to 234 | COc1cc2nccc(Oc3ccc(NS(=O)(=O)c4ccc(Br)c(Cl)c4)cc3)c2cc1OC [Example A117, 4-Bromo-3-chloro-N-[4-(6,7-dimethoxy-quinolin-4-yloxy)-phenyl]-benzenesulfonamide]
0.54 | 260 to 263 | COc1cc2nccc(Oc3ccc(NS(=O)(=O)c4cc(F)ccc4F)cc3)c2cc1OC [Example A118, N-[4-(6,7-Dimethoxy-quinolin-4-yloxy)-phenyl]-2,5-difluoro-benzenesulfonamide]
> 3 | 211 to 212 | COc1cc2nccc(Oc3ccc(NS(=O)(=O)c4ccccc4OC(F)(F)F)cc3OC)c2cc1OC [Example A119, N-[4-(6,7-Dimethoxy-quinolin-4-yloxy)-3-methoxy-phenyl]-2-trifluoromethoxy-benzenesulfonamide]
> 10 | 106 to 107 | COc1cc2nccc(Oc3ccc(NS(=O)(=O)c4cccc(Oc5ccccc5)c4)cc3OC)c2cc1OC [Example A120, N-[4-(6,7-Dimethoxy-quinolin-4-yloxy)-3-methoxy-phenyl]-3-phenoxy-benzenesulfonamide]
> 10 | 109 to 110 | COc1cc(S(=O)(=O)Nc2ccc(Oc3ccnc4cc(OC)c(OC)cc34)c(OC)c2)ccc1F [Example A121, N-[4-(6,7-Dimethoxy-quinolin-4-yloxy)-3-methoxy-phenyl]-4-fluoro-3-methoxy-benzenesulfonamide]
> 10 | 110 to 113 | COc1cc2nccc(Oc3ccc(NS(=O)(=O)c4ccc(Br)c(Cl)c4)cc3OC)c2cc1OC [Example A122, 4-Bromo-3-chloro-N-[4-(6,7-dimethoxy-quinolin-4-yloxy)-3-methoxy-phenyl]-benzenesulfonamide]
> 3 | 144 to 147 | COc1cc2nccc(Oc3ccc(NS(=O)(=O)c4ccc(Br)c(Cl)c4)cc3F)c2cc1OC [Example A124, 4-Bromo-3-chloro-N-[4-(6,7-dimethoxy-quinolin-4-yloxy)-3-fluoro-phenyl]-benzenesulfonamide]
0.13 | 203 to 204 | COc1cc2nccc(Oc3ccc(NS(=O)(=O)c4ccccc4OC(F)(F)F)cc3F)c2cc1OC [Example A126, N-[4-(6,7-Dimethoxy-quinolin-4-yloxy)-3-fluoro-phenyl]-2-trifluoromethoxy-benzenesulfonamide]
> 3 | 206 to 208 | COc1cc2nccc(Oc3ccc(NS(=O)(=O)c4cc(Cl)cc(Cl)c4OC)cc3C)c2cc1OC [Example A127, 3,5-Dichloro-N-[4-(6,7-dimethoxy-quinolin-4-yloxy)-3-methyl-phenyl]-2-methoxy-benzenesulfonamide]
> 3 | 207 to 209 | COc1cc2nccc(Oc3ccc(NS(=O)(=O)c4ccccc4OC(F)(F)F)cc3C)c2cc1OC [Example A129, N-[4-(6,7-Dimethoxy-quinolin-4-yloxy)-3-methyl-phenyl]-2-trifluoromethoxy-benzenesulfonamide]
> 10 | 233 to 235 | COc1cc2nccc(Oc3ccc(NS(=O)(=O)c4ccc(OC)c5ccccc45)cc3C)c2cc1OC [Example A130, 4-Methoxy-naphthalene-1-sulfonic acid [4-(6,7-dimethoxy-quinolin-4-yloxy)-3-methyl-phenyl]-amide]
1.68 | 239 to 240 | COc1cc2nccc(Oc3ccc(NS(=O)(=O)c4cc(F)ccc4F)cc3C)c2cc1OC [Example A131, N-[4-(6,7-Dimethoxy-quinolin-4-yloxy)-3-methyl-phenyl]-2,5-difluoro-benzenesulfonamide]
> 10 | 188 to 190 | COc1cc2nccc(Oc3ccc(NS(=O)(=O)c4cccc(-c5ncccn5)c4)cc3C)c2cc1OC [Example A132, N-[4-(6,7-Dimethoxy-quinolin-4-yloxy)-3-methyl-phenyl]-3-pyrimidin-2-yl-benzenesulfonamide]
> 10 | 240 to 242 | COc1cc2nccc(Oc3ccc(NS(=O)(=O)c4ccc(OC)c5ccccc45)cc3)c2cc1OC [Example A133, 4-Methoxy-naphthalene-1-sulfonic acid [4-(6,7-dimethoxy-quinolin-4-yloxy)-phenyl]-amide]
> 1 | 218 to 220 | COc1cc2nccc(Oc3ccc(NS(=O)(=O)c4ccc(Cl)cc4F)cc3)c2cc1OC [Example A134, 4-Chloro-N-[4-(6,7-dimethoxy-quinolin-4-yloxy)-phenyl]-2-fluoro-benzenesulfonamide]
0.82 | 145 to 147 | COc1cc2nccc(Oc3ccc(NS(=O)(=O)c4ccc(OC)c5ccccc45)cc3F)c2cc1OC [Example A135, 4-Methoxy-naphthalene-1-sulfonic acid [4-(6,7-dimethoxy-quinolin-4-yloxy)-3-fluoro-phenyl]-amide]
> 10 | 199 to 201 | COc1cc2nccc(Oc3ccc(NS(=O)(=O)c4ccc(-c5ccccc5)cc4)c(F)c3)c2cc1OC [Example A136, Biphenyl-4-sulfonic acid [4-(6,7-dimethoxy-quinolin-4-yloxy)-2-fluoro-phenyl]-amide]
> 10 | 195 to 197 | COc1cc2nccc(Oc3ccc(NS(=O)(=O)c4ccc5c(c4)CC(=O)N5C)c(F)c3)c2cc1OC [Example A137, 1-Methyl-2-oxo-2,3-dihydro-1H-indole-5-sulfonic acid [4-(6,7-dimethoxy-quinolin-4-yloxy)-2-fluoro-phenyl]-amide]
